From patent US20250171495A1, “MUTLI-TARGETED SERINE PROTEASE INHIBITORS FOR TREATMENT OF CANCER AND VIRAL INFECTION” (Washington University, priority 2023, published 2025)

Tested on: VSV-SARS-CoV-2
Experiment: microbe, parasite or virus in culture
Conditions: Vesicular stomatitis virus, Calu-3, in Homo sapiens, read-out: VSV SARS CoV-2 Cell Entry EC50 (nM)

Compound	EC50 [nM]
CCC(C)[C@H](NC(C)=O)C(=O)N[C@@H](CCC(N)=O)C(=O)N[C@H](C(=O)N[C@H](CCCNC(=N)N)C(=O)c1nc2ccccc2s1)C(C)C (stereo partly drawn) [MM3180-1, N-[(S)-2-methyl-1-[N-(R)-1-[(1,3-benzothiazol-2-yl)carbonyl]-4-guanidinobutylcarbamoyl]propyl](S)-2-[(2S)-2-acetylamino-3-methylvalerylamino]glutaramide]	5.3
CC(=O)N[C@H](Cc1c[nH]c2ccccc12)C(=O)N[C@@H](Cc1ccccc1)C(=O)N[C@@H](CCCNC(=N)N)C(=O)c1nc2ccc(C(=O)O)cc2s1 [PK-1-93, 2-[(S)-2-[(S)-2-[(R)-2-acetylamino-3-(3-indolyl)propionylamino]-3-phenylpropionylamino]-5-guanidinovaleryl]-1,3-benzothiazole-6-carboxylic acid]	141
CC(=O)N[C@@H](Cc1ccccc1)C(=O)N[C@@H](CC(C)C)C(=O)N[C@@H](Cc1ccccc1)C(=O)N[C@@H](CCCNC(=N)N)C(=O)c1nc2ccccc2s1 [ZFH7063, N-[(S)-1-[N-(S)-1-[(1,3-benzothiazol-2-yl)carbonyl]-4-guanidinobutylcarbamoyl]-2-phenylethyl](S)-2-[(S)-2-acetylamino-3-phenylpropionylamino]-4-methylvaleramide]	101
CC(=O)N[C@@H](CCC(N)=O)C(=O)N[C@@H](Cc1ccccc1)C(=O)N[C@@H](CCCNC(=N)N)C(=O)c1nc2ccccc2s1 [MM3144, N-[(S)-1-[N-(S)-1-[(1,3-benzothiazol-2-yl)carbonyl]-4-guanidinobutylcarbamoyl]-2-phenylethyl](S)-2-acetylaminoglutaramide]	0.53
CC(=O)N[C@@H](CO)C(=O)N[C@@H](CCCCN)C(=O)N[C@@H](CC(C)C)C(=O)N[C@@H](CCCNC(=N)N)C(=O)c1nc2ccccc2s1 [ZFH7053, N-[(S)-3-methyl-1-[N-(S)-1-[(1,3-benzothiazol-2-yl)carbonyl]-4-guanidinobutylcarbamoyl]butyl](S)-2-[(S)-2-acetylamino-3-hydroxypropionylamino]-6-aminohexanamide]	4270
CC(=O)NCC(=O)N[C@@H](CCC(N)=O)C(=O)N[C@@H](Cc1ccccc1)C(=O)N[C@@H](CCCNC(=N)N)C(=O)c1nc2ccccc2s1 [MM3122, N-[(S)-1-[N-(S)-1-[(1,3-benzothiazol-2-yl)carbonyl]-4-guanidinobutylcarbamoyl]-2-phenylethyl](S)-2-[(acetylaminomethyl)carbonylamino]glutaramide]	0.43
CCC(C)[C@H](NC(C)=O)C(=O)N[C@@H](CCC(=O)O)C(=O)N[C@@H](Cc1ccccc1)C(=O)N[C@@H](CCCNC(=N)N)C(=O)c1nc2ccccc2s1 (stereo partly drawn) [MM4037-2, (S)-4-[(2S)-2-acetylamino-3-methylvalerylamino]-4-[N-(S)-1-[N-(S)-1-[(1,3-benzothiazol-2-yl)carbonyl]-4-guanidinobutylcarbamoyl]-2-phenylethylcarbamoyl]butyric acid]	23.9
CCC(C)[C@H](NC(C)=O)C(=O)N[C@@H](CCC(N)=O)C(=O)N[C@@H](Cc1c[nH]c2ccccc12)C(=O)N[C@@H](CCCNC(=N)N)C(=O)c1nc2ccccc2s1 (stereo partly drawn) [MM3187, N-[(S)-2-(3-indolyl)-1-[N-(S)-1-[(1,3-benzothiazol-2-yl)carbonyl]-4-guanidinobutylcarbamoyl]ethyl](S)-2-[(2S)-2-acetylamino-3-methylvalerylamino]glutaramide]	22
CCC(C)[C@H](NC(C)=O)C(=O)N[C@@H](CCC(N)=O)C(=O)N[C@H](C(=O)N[C@@H](CCCNC(=N)N)C(=O)c1nc2ccccc2s1)C(C)O (stereo partly drawn) [MM3186, N-[(1S)-2-hydroxy-1-[N-(S)-1-[(1,3-benzothiazol-2-yl)carbonyl]-4-guanidinobutylcarbamoyl]propyl](S)-2-[(2S)-2-acetylamino-3-methylvalerylamino]glutaramide]	18.5
N=C(N)NCCC[C@H](NC(=O)[C@H](Cc1ccccc1)NC(=O)[C@H](N)Cc1c[nH]c2ccccc12)C(=O)c1nc2ccccc2s1 [PK-1-18A1, N-[(S)-1-[(1,3-benzothiazol-2-yl)carbonyl]-4-guanidinobutyl](S)-2-[(R)-2-amino-3-(3-indolyl)propionylamino]-3-phenylpropionamide]	356
CC(=O)N1CCC[C@H]1C(=O)N[C@@H](CO)C(=O)N[C@@H](CCCCN)C(=O)N[C@@H](CCCNC(=N)N)C(=O)c1nc2ccccc2s1 [MM3194A, N-[(S)-2-hydroxy-1-[N-(S)-5-amino-1-[N-(S)-1-[(1,3-benzothiazol-2-yl)carbonyl]-4-guanidinobutylcarbamoyl]pentylcarbamoy1]ethyl]-(S)-1-acetyl-2-pyrrolidinecarboxamide]	613
CCC(C)[C@H](NC(C)=O)C(=O)N[C@@H](CCC(N)=O)C(=O)N[C@@H](CO)C(=O)N[C@@H](CCCNC(=N)N)C(=O)c1nc2ccccc2s1 (stereo partly drawn) [MM3177, N-[(S)-2-hydroxy-1-[N-(S)-1-[(1,3-benzothiazol-2-yl)carbonyl]-4-guanidinobutylcarbamoyl]ethyl](S)-2-[(2S)-2-acetylamino-3-methylvalerylamino]glutaramide]	36
CCC(C)[C@H](NC(C)=O)C(=O)N[C@@H](CCC(N)=O)C(=O)N[C@@H](Cc1ccccc1)C(=O)N[C@@H](CCCNC(=N)N)C(=O)c1nc2ccccc2s1 (stereo partly drawn) [MM3116, N-[(S)-1-[N-(S)-1-[(1,3-benzothiazol-2-yl)carbonyl]-4-guanidinobutylcarbamoyl]-2-phenylethyl](S)-2-[(2S)-2-acetylamino-3-methylvalerylamino]glutaramide]	3.6
CC(=O)N[C@H]1Cc2ccc(cc2)Oc2cccc(c2)C[C@@H](C(=O)N[C@@H](CCCNC(=N)N)C(=O)c2nc3ccccc3s2)NC(=O)[C@H](CC(C)C)NC1=O [VD5064B, N-[(S)-1-[(1,3-benzothiazol-2-yl)carbonyl]-4-guanidinobutyl]-(9S,12S,15S)-15-acetylamino-12-isobutyl-11,14-dioxo-2-oxa-10,13-diazatricyclo[15.2.2.1^3,^7]docosa-1(19),3,5,7(22),17,20-hexaene-9-carboxamide]	8370
CC(=O)N[C@@H](CO)C(=O)N[C@@H](CCC(N)=O)C(=O)N[C@@H](CC(C)C)C(=O)N[C@@H](CCCNC(=N)N)C(=O)c1nccs1 [ZFH6138, N-[(S)-3-methyl-1-[N-(S)-4-guanidino-1-[(1,3-thiazol-2-yl)carbonyl]butylcarbamoyl]butyl](S)-2-[(S)-2-acetylamino-3-hydroxypropionylamino]glutaramide]	1320
CCC(C)[C@H](NC(C)=O)C(=O)N[C@@H](CCC(N)=O)C(=O)N[C@H](C(=O)N[C@@H](CCCNC(=N)N)C(=O)c1nc2ccccc2s1)C(C)C (stereo partly drawn) [MM3180-2, N-[(S)-2-methyl-1-[N-(S)-1-[(1,3-benzothiazol-2-yl)carbonyl]-4-guanidinobutylcarbamoyl]propyl](S)-2-[(2S)-2-acetylamino-3-methylvalerylamino]glutaramide]	12
CC(=O)N[C@@H](CCCCN)C(=O)N[C@@H](CCC(N)=O)C(=O)N[C@@H](Cc1ccccc1)C(=O)N[C@@H](CCCNC(=N)N)C(=O)c1nccs1 [ZFH6101, N-[(S)-1-[N-(S)-4-guanidino-1-[(1,3-thiazol-2-yl)carbonyl]butylcarbamoyl]-2-phenylethyl](S)-2-[(S)-1-acetylamino-5-aminopentylcarbonylamino] glutaramide]	262
CCC(C)[C@H](NC(C)=O)C(=O)N[C@@H](CCSC)C(=O)N[C@@H](Cc1ccccc1)C(=O)N[C@H](CCCNC(=N)N)C(=O)c1nc2ccccc2s1 (stereo partly drawn) [MM4027-1, N-[(S)-3-(methylthio)-1-[N-(S)-1-[N-(R)-1-[(1,3-benzothiazol-2-yl)carbonyl]-4-guanidinobutylcarbamoyl]-2-phenylethylcarbamoyl]propyl](2S)-2-acetylamino-3-methylvaleramide]	92.3
CC(=O)N[C@@H](Cc1c[nH]c2ccccc12)C(=O)N[C@@H](Cc1ccccc1)C(=O)N[C@@H](CCCNC(=N)N)C(=O)c1nc2ccc(C(=O)O)cc2s1 [PK-1-103, 2-[(S)-2-[(S)-2-[(S)-2-acetylamino-3-(3-indolyl)propionylamino]-3-phenylpropionylamino]-5-guanidinovaleryl]-1,3-benzothiazole-6-carboxylic acid]	116
CC(=O)N[C@H]1Cc2ccc(cc2)OCCCC[C@@H](C(=O)N[C@@H](CCCNC(=N)N)C(=O)c2nc3ccccc3s2)NC(=O)[C@@H](Cc2c[nH]c3ccccc23)NC1=O [VD4162B, N-[(S)-1-[(1,3-benzothiazol-2-yl)carbonyl]-4-guanidinobutyl]-(7S,10R,13S)-13-acetylamino-10-[(3-indolyl)methyl]-9,12-dioxo-2-oxa-8,11-diazabicyclo[13.2.2]nonadeca-1(17),15,18-triene-7-carboxamide]	2060
CC(=O)N[C@@H](CO)C(=O)N[C@@H](CCCCN)C(=O)N[C@@H](Cc1ccccc1)C(=O)N[C@@H](CCCNC(=N)N)C(=O)c1nccs1 [ZFH6095, N-[(S)-1-[N-(S)-4-guanidino-1-[(1,3-thiazol-2-yl)carbonyl]butylcarbamoyl]-2-phenylethyl](S)-2-[(S)-2-acetylamino-3-hydroxypropionylamino]-6-aminohexanamide]	1160
CCC(C)[C@H](NC(C)=O)C(=O)N[C@@H](CCC(N)=O)C(=O)N[C@@H](C)C(=O)N[C@@H](CCCNC(=N)N)C(=O)c1nc2ccccc2s1 (stereo partly drawn) [MM3178, N-[(S)-1-[N-(S)-1-[(1,3-benzothiazol-2-yl)carbonyl]-4-guanidinobutylcarbamoyl]ethyl](S)-2-[(2S)-2-acetylamino-3-methylvalerylamino]glutaramide]	10.8
CCC(C)[C@H](NC(C)=O)C(=O)N[C@H](C(=O)N[C@@H](Cc1ccccc1)C(=O)N[C@@H](CCCNC(=N)N)C(=O)c1nc2ccccc2s1)C(C)O (stereo partly drawn) [MM4028-2, N-[(1S)-2-hydroxy-1-[N-(S)-1-[N-(S)-1-[(1,3-benzothiazol-2-yl)carbonyl]-4-guanidinobutylcarbamoyl]-2-phenylethylcarbamoyl]propyl](2S)-2-acetylamino-3-methylvaleramide]	103
